The target of one assay is T1, human CCK-2 receptor (Homo sapiens, UniProt P32239).
T1 construct: expressed in transfected cells; host or cells: A431 human squamous carcinoma cells (gift from L. Aloj)
T1 sequence (P32239 1-447): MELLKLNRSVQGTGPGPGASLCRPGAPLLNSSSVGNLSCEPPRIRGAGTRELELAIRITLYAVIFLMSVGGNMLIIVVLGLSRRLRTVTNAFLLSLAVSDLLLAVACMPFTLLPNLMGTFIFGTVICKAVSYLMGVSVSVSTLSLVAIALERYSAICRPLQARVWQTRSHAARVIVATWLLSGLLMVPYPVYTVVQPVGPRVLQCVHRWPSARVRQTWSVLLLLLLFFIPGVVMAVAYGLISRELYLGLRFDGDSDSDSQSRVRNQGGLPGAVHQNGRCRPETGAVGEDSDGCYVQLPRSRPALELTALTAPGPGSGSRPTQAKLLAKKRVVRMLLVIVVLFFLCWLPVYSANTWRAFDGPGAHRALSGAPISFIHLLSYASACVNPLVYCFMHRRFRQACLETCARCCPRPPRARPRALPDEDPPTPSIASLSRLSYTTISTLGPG
More on the design: method as in unpublished data. The note with it: comparison value, slight variances in experimental setting; ref unpublished data; cited from earlier work.

Assay [1] deals with M21 (αvβ3-positive) cells. Put plainly: Fluorescence measured cell specificity, M21. The format is cell-based, human. The note with it: 2 h incubation, 3 nM ligand. How it is done: (§1) Fluorescence assays were conducted similarly to the internalization assays except for using lower cell numbers and determining only the cellbound fraction. Briefly, A431-CCK2R, M21, and M21-L cells were diluted in corresponding media to a density of 2 × 10^6 cells/mL. Aliquots of 0.5 mL were transferred to Eppendorf tubes—six technical replicates for A431-CCK2R unblocked and blocked and M21/M21-L, respectively—and treated in the same manner as described above. The nonradiolabeled particular ligand was added to a final concentration of 3 nM and the tubes were kept in an incubator (Incubator hood TH15 and Compact shaker KS-15 control, Edmund Bühler GmbH, Hechingen, Germany) at 37 °C for 2 h under vigorously shaking (420/min). After centrifugation (2 min, 5000 rpm) washing steps were performed as mentioned before. […] Fluorescence intensity was measured with Tecan Infinite 200 PRO series multiplate reader (Tecan Trading AG, Switzerland) by using Tecan Icontrol 1.1 software. Parameters were set as follows: Fluorescence Top reading; excitation/emission wavelength 740/790 nm; excitation bandwidth 9 nm; emission bandwidth 20 nm; gain optimal; number of flashes 25; integration time 25 μs. Results were calculated and expressed as percentage of cell-bound fluorescence in relation to the standards sample.

The test system of assay [2] is mice bearing U-87MG tumor xenografts. As to the kind of experiment: Near-infrared fluorescence imaging, U-87MG xenografts. The format is in vivo, mouse. How it is done: All animal experiments were conducted in accordance with regulations and guidelines of the Czech Animal Protection Act (No. 246/1992), and with the approval of the Czech Ministry of Education, Youth, and Sports (MSMT-22421/2013–12), and the institutional Animal Welfare Committee of the Faculty of Medicine and Dentistry of Palacky University in Olomouc. The studies were performed using female 8–10-week-old athymic BALB/c nude mice (Envigo, Horst, The Netherlands). […]
Tumor xenografts were established near the front shoulder of mice by subcutaneous injection of 5 × 10^6 cells (U-87 MG) or 2 × 10^6 cells (A431-CCK2R) and the same amount of A431-mock cells as a control in 200 μL appropriate medium and Matrigel (1:1). […] Tumors, blood, muscle tissue, and organs were extracted, weighed, and activity uptake of the samples was measured in the gamma counter. Results were expressed as percentage of injected dose per gram tissue (% ID/g). […] After reconstruction, acquired data was viewed and analyzed with PMOD software (PMOD Technologies Ltd., Zurich, Switzerland). […] Near-infrared in vivo fluorescence imaging was performed with an In-Vivo MS FX PRO small animal imaging system (Bruker Biospin Corporation, Woodbridge, CT, USA). […] An appropriate filter set (excitation = 730 nm and emission = 790 nm) was used for acquiring the Sulfo-Cy7-FSC-peptide - fluorescence in vivo. […]

Assay [3] has as its system M21-L (αvβ3-negative) cells. As to the kind of experiment: Fluorescence measured cell specificity, M21-L. The following applies: 2 h incubation, 3 nM ligand. It is filed as cell-based, human. Here is the method:
as §1

The target in a further assay is T2, integrin αvβ3 (Homo sapiens, UniProt P05106+P06756).
T2 construct: endogenous in cells; host or cells: human melanoma M21 cells (gift from D. A. Cheresh)
T2 sequence (P06756 31-889 limits assumed): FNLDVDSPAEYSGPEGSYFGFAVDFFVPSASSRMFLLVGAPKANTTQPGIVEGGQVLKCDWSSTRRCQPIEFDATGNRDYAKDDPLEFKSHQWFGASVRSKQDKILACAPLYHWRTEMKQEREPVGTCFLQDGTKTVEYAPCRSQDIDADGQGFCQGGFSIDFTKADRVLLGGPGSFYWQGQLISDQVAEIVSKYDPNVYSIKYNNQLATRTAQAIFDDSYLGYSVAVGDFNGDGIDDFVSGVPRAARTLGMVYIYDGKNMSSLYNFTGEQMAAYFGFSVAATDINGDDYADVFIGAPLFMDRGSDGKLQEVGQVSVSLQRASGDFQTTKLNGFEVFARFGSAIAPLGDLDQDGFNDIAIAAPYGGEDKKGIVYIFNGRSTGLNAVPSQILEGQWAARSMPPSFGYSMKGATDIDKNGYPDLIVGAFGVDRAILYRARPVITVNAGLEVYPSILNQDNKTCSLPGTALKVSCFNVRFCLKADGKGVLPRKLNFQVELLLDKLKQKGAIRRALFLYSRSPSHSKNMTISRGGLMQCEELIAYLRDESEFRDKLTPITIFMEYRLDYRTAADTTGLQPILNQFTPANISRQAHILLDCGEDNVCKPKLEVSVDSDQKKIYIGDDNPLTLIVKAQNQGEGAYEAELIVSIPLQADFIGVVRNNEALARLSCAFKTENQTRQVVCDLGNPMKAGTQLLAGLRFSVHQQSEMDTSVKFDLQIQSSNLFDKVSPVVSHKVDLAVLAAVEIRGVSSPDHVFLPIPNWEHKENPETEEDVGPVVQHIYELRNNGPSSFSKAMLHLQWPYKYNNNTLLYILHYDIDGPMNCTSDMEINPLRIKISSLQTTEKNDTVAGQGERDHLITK
T2 sequence (P06756 891-1048 partner limits assumed): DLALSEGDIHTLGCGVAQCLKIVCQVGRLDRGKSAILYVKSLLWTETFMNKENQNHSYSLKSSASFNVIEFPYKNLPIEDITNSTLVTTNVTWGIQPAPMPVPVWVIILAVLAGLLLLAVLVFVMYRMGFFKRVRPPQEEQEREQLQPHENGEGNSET
T2 sequence (P05106 27-788): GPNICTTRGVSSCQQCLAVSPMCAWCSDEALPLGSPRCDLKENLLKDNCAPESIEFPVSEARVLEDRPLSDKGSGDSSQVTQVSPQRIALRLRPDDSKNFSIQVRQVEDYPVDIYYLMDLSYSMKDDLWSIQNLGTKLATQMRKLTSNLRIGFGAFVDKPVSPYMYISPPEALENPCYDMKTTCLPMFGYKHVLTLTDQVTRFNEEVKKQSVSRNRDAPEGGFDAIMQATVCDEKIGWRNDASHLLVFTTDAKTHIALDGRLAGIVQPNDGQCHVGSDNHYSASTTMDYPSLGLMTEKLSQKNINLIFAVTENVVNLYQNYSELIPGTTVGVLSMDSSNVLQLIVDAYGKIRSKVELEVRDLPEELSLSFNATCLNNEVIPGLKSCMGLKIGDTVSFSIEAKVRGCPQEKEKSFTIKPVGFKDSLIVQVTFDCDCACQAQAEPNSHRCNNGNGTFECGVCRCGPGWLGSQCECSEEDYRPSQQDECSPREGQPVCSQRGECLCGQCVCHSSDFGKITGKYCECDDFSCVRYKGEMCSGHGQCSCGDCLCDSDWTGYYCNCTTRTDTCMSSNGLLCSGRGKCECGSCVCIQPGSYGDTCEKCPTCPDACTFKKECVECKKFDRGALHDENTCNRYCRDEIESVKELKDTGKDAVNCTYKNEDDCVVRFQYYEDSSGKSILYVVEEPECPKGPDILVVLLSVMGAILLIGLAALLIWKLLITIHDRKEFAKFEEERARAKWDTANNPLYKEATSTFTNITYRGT
Put plainly: Integrin binding affinity assay (displacement of [125I]-c(RGDyV)) on M21 cells. The following applies: metal-free conjugate or reference peptide, radioligand [125I]-c(RGDyV), 2 h RT. How it is done: Receptor binding affinities were evaluated via a displacement cell-binding assay for metal free as well as metal bound ([^natGa]) conjugates. Binding of nonradioactive gallium was performed in analogy to the radiolabeling procedure but instead of the generator eluate a 100-fold molar excess of gallium bromide (GaBr3) dissolved in 100 μL 0.1 N HCl was used. Cells were prepared as described below and incubated with increasing concentrations [0.001–1000 nM] of competitor in triplicate. After addition of corresponding iodinated radioligand the 96-well MulitScreen Filter Plates HTS (1 μm glass fiber filter, Merck Millipore, Darmstadt, Germany) were incubated for 1 or 2 h at RT under shaking conditions (Compact shaker KS-15 control, 200/min) and after a washing step the remaining activity on the filter was measured in the γ-counter. The receptor affinity of DOTA-minigastrin11 as well as c(RGDyV) were determined under the corresponding conditions as a reference. IC50 values were calculated by using nonlinear curve fitting with following formula NS+SB/(1+x/IC50) on Origin 6.1 software (Northampton, MA, USA). A detailed description regarding iodination can be found in the Supporting Information.
Integrin binding affinity assay was adapted from Yun Wu et al.[31] Briefly, M21 cells were washed two times with phosphate buffered saline followed by suspension in binding buffer (=20 mM TRIS pH 7.4 + 150 mM NaCl + 2 mM CaCl2 + 1 mM MgCl2 + 1 mM MnCl2 0.1% BSA). 96-well plates were washed with 200 μL of 20 mM TRIS-buffer and seeded with 1 × 10^6 cells/well (10^7 cells/mL). After 10 min of incubation in the presence of the competitor {([^natGa])Sulfo-Cy7-FSC-RGD or c(RGDyV) diluted in binding buffer)} volume was adjusted to 200 μL/well by adding 50 μL of radioligand ([^125I]-c(RGDyV), 4.5 × 10^4 cpm) and the plate was left for 2 h at RT. Finally the supernatant was removed by vacuum and each well was washed three times with 200 μL ice-cold binding buffer.

The source of these data is PMC5481817, “Developing Targeted Hybrid Imaging Probes by Chelator Scaffolding” (Bioconjugate chemistry, 2017).

A word on the IC50: it is the point on the concentration scale where inhibition reaches its midpoint. On to “nonfluorescent divalent FSC-MG derivative: nonfluorescent divalent FSC-MG derivative, authors' unpublished data used for comparison (EAYGWMDF; Synthetic minigastrin analogue MG11, converted from the printed [D-Glu1,desGlu2-6]-Ala-Tyr-Gly-Trp-Met-Asp-Phe-NH2; Glu1 is D-Glu; C-terminal amide; Two peptides on one Fusarinine C chelator, no fluor)”, for which the half-maximal inhibitory concentration (IC50) with human CCK-2 receptor was 0.9 ± 0.2 nM.

Turning to `CC1=CC(=O)N(O)CCCC(NC(=O)CCN2C(=O)CC(SCCOCCOCCOCCOCCC(=O)NCCCC[C@@H]3NC(=O)[C@@H](Cc4ccccc4)NC(=O)[C@H](CC(=O)O)NC(=O)CNC(=O)[C@H](CCCNC(=N)N)NC3=O)C2=O)C(=O)OCCC(C)=CC(=O)N(O)CCCC(NC(=O)CCN2C(=O)CC(SCCOCCOCCOCCOCCC(=O)NCCCC[C@@H]3NC(=O)[C@@H](Cc4ccccc4)NC(=O)[C@H](CC(=O)O)NC(=O)CNC(=O)[C@H](CCCNC(=N)N)NC3=O)C2=O)C(=O)OCCC(C)=CC(=O)N(O)CCCC(NC(=O)CCCCC[N+]2=C(C=CC3=CC(=CC=C4N(C)c5ccc(S(=O)(=O)O)cc5C4(C)C)CCC3)C(C)(C)c3cc(S(=O)(=O)[O-])ccc32)C(=O)OCC1` (stereo partly drawn) [Sulfo-Cy7-FSC-RGD, Sulfo-Cyanine7-FSC-(mal-c(RGDfK)-(PEG4))2], the Fluorescence-determined cell uptake in assay [1] stood at 5.79 ± 0.88%; in assay [3] it was 1.74 ± 0.25%. For the same compound, in assay [2] (after administration), the “time of best contrast in fluorescence imaging” value is on record as 24 h. In addition, the “tumor retention in fluorescence imaging” value in assay [2] (two days after injection) is on record as “completely washed out from tumor tissue”. On integrin αvβ3, this compound showed an IC50 of 1.13 ± 0.22 nM.
